# Experimental data as given in patent US7566812B2, “Transgenic mouse models of hepatitis C virus (HCV) and identification of HCV therapeutics” (priority 2004, dated 2009).
# Assays:
# NS3/4A-Tg mice = test: Survival after TNF-α/D-Gal challenge, NS3/4A transgenic mice; assay type: in vivo, mouse
# Experimental: (§1) This Example describes several of the approaches used to induce hepatic injury in the NS3/4A-Tg mice and the techniques used to analyze the data. All NS3/4A-Tg or wild-type (Wt) mice used in these experiments were male and/or females between 6-12 weeks old. All groups of mice contained five to ten mice. Comparisons were done in age matched animals, excluding an age dependent difference when comparing groups. For the carbon tetrachloride (CCl4) treatment, CCl4 was diluted in 100 μL olive oil and administered intraperitoneal (i.p.) as a single dose to NS3/4A-Tg and Wt mice. Each mouse was treated with 10 mg (0.5 g/kg) CCl4 (Sigma). Serum from individual mice was collected at various time intervals (12, 24, 48, and 72 hours) after CCl4-treatment by retro-orbital bleeding. Serum alanine aminotransferase (ALT) values were measured to evaluate the extent of liver injury. […] Serum ALT values were measured to evaluate the extent of liver injury. […] Serum ALT values were measured to evaluate the extent of liver injury. […] Serum ALT values were measured to evaluate the extent of liver injury. […] Serum ALT values were measured to evaluate the extent of liver injury.
# (§2) SB203580 (Calbiochem) was dissolved/diluted in sterile dH2O and administered to mice intra orally (i.o.). […] The following Example teaches how the above data were statistically analyzed.
# wild-type mice = test: Survival after TNF-α/D-Gal challenge, wild-type mice; assay type: in vivo, mouse
# Experimental: as §1, §2
# HCV = test: Treatment of a patient with HCV related complications; assay type: in vivo; conditions: repeated course of treatment
# Experimental: A patient in need of treatment of HCV related complications is identified by routine methods. The patient is administered an amount of SB203580, based on the particular patient and the severity of the HCV symptoms. Following a repeated course of treatment, if required, the patient's HCV related symptoms are reduced. In some applications, the reduction of viral lode or another indicator for HCV infection is measured. The next example describes more transgenic organisms that contain the constructs described herein.
# [1] = tested on: NS3/4A-SP2/0 tumor cell line; test: In vivo tumor growth assay in immunized Balb/c mice, NS3/4A-SP2/0 cells; conditions: 3 mg ribavirin with 100, 10 or 1 micrograms coNS3/4A, single immunization
# Experimental: To study whether the constructs described above were capable of eliciting a cell-mediated response against NS3, an in vivo tumor growth assay was performed. To this end, an SP2/0 tumor cell line (SP2/0-Ag14 myeloma cell line (H-2^d)) stably transfected with the NS3/4A gene was made. The SP2/0 cells were maintained in DMEM medium supplemented with 10% fetal calf serum (FCS; Sigma Chemicals, St. Louis, Mo.), 2 mM L-Glutamine, 10 mM HEPES, 100 U/ml Penicillin and 100 μg/ml Streptomycin, 1 mM non-essential amino acids, 50 μM β-mercaptoethanol, 1 mM sodium pyruvate (GIBCO-BRL, Gaithesburgh, Md.). The pcDNA3.1 plasmid containing the NS3/4A gene was linearized by BglII digestion. […]
# Transfected cells were cloned by limiting dilution and selected by addition of 800 μg geneticin (G418)/ml complete DMEM medium after 14 days. […] Bound murine serum antibodies were detected by an alkaline phosphatase conjugated goat anti-mouse IgG (Sigma cell products, Saint Louis, Mo. USA) followed by addition of the substrate pNPP (1 tablet/5 ml of 1 M Diethanolamin buffer with 0.5 mM MgCl2). […] Absorbance was then read at 405 nm.
# The in vivo growth kinetics of the SP2/0 and the NS3/4A-SP2/0 cell lines were then evaluated in Balb/c mice. […] Each day the size of the tumor was determined through the skin. […]
# [2] = tested on: NS3/4A-EL-4 tumor cell line; test: Tumor challenge model with NS3/4A-EL-4 tumor cells; assay type: in vivo; conditions: C57BL/6 mice
# From the text: To define the in vivo functional anti-tumor effector cell population, CD4+ or CD8+ T cells were depleted in mice immunized with the coNS3/4A plasmid one week prior to, and during, challenge with the NS3/4A-EL-4 tumor cell line. […] Thus, NS3/4A-specific CD8+ CTLs are the major protective cell at the effector stage in the in vivo model for inhibition of tumor growth.
# The tumor challenge model was used to evaluate how effective the different immunogens were in priming a protective immunity against growth of NS3/4A-EL4 tumor cells in vivo. To ensure that the effectiveness of the priming event was studied, all mice were immunized only once. Vectors containing NS3/4A were able to rapidly prime protective immune responses as compared to the immunized with the empty pVAX plasmid (p<0.05, ANOVA; FIG. 10). […] The next example examines the prerequisites for priming of CD8+ CTL.
# To further clarify the prerequisites for priming of CD8+ CTL additional experiments were performed. First, C57BL/6 mice immunized with the NS3-derived CTL peptide were not protected against growth of NS3/4A-EL-4 tumors. […] To further characterize the priming event, groups of B cell (μMT; Kitamura D., et al., Nature, 350: 423-426 (1991)) or CD4 deficient C57BL/6 mice (Rahemtulla A et al., Nature, 353:180-184 (1991)) were immunized once with the coNS3/4A gene using gene gun, and challenged two weeks later (FIG. 10). […]
# [3] = 0.5 mg (25 mg/kg) i.o. thirty minutes prior to rm TNF-α/D-Gal
compound,measurement,setting,value
C[S+]([O-])c1ccc(-c2nc(-c3ccncc3)c(-c3ccc(F)cc3)[nH]2)cc1 (stereo not shown) [SB203580],TNF-alpha sensitivity phenotype (survival) of NS3/4A transgenic mice,NS3/4A-Tg mice; [3],reverted to TNF-alpha sensitive phenotype
same,impact on the survival rate of wild-type mice provided TNF-alpha,wild-type mice; [3],no significant
same,patient's HCV related symptoms,HCV,reduced
"NC(=O)c1ncn([C@@H]2O[C@H](CO)[C@@H](O)[C@H]2O)n1 [ribavirin, 1-β-D-ribofuranosyl-1,2,4-triazole-3-carboxamide]",effect of the adjuvant on the effectiveness of the initial coNS3/4A immunization (tumor size),[1],dramatically increased the effectiveness
"GAVQNEVTL (Artificial Peptide, NS3/4A H-2D Binding Peptide) [NS3-derived CTL peptide]",protection against growth of NS3/4A-EL-4 tumors,[2],not protected
TNF-α,survival of the lethal TNF-α dose,"NS3/4A-Tg mice; 5 μg/kg, NS3/4A-Tg mice",all NS3/4A-Tg mice survived
same,mice killed,"wild-type mice; 5 μg/kg, non-transgenic mice, within 24 hours",80%
